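Tested at 5 concentrations; 48 h exposure; 96-well plates; endpoints linearly interpolated, else capped at highest concentration. GI50 = concentration required for 50% inhibition of growth.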 Active and inactive are the calls of the source. Cut-off read from the data, not from the text of the source: active = GI50 up to about 1.1 µM and inactive = higher.
Columns and labels:
Experiment in all cases: NCI tumour cell line growth inhibition, 48 h
PC-3 = tested on: PC-3
UACC-62 = tested on: UACC-62
HT-29 = tested on: HT-29
TK-10 = tested on: TK-10
OVCAR-8 = tested on: OVCAR-8
SF-268 = tested on: SF-268
SK-MEL-28 = tested on: SK-MEL-28
SN12C = tested on: SN12C
NCI-H226 = tested on: NCI-H226
U-251 = tested on: U-251
LOX IMVI = tested on: LOX IMVI
UO-31 = tested on: UO-31
SNB-75 = tested on: SNB-75
K562 = tested on: K562
CCRF-CEM = tested on: CCRF-CEM
HCT-116 = tested on: HCT-116
SK-OV-3 = tested on: SK-OV-3
EKVX = tested on: EKVX
BT-549 = tested on: BT-549
IGROV-1 = tested on: IGROV-1
DU-145 = tested on: DU-145
SF-539 = tested on: SF-539
RPMI-8226 = tested on: RPMI-8226
NCI/ADR-RES = tested on: NCI/ADR-RES
NCI-H23 = tested on: NCI-H23
CAKI-1 = tested on: CAKI-1
786-0 = tested on: 786-0
SNB-19 = tested on: SNB-19
HL-60 = tested on: HL-60
A498 = tested on: A498
Hs-578T = tested on: Hs-578T
COLO 205 = tested on: COLO 205
Malme-3M = tested on: Malme-3M
KM12 = tested on: KM12
SF-295 = tested on: SF-295
ACHN = tested on: ACHN
MDA-N = tested on: MDA-N
OVCAR-5 = tested on: OVCAR-5
M14 = tested on: M14
MDA-MB-435 = tested on: MDA-MB-435
OVCAR-3 = tested on: OVCAR-3
SK-MEL-2 = tested on: SK-MEL-2
HCT-15 = tested on: HCT-15
MDA-MB-231 = tested on: MDA-MB-231
RXF 393 = tested on: RXF 393
SK-MEL-5 = tested on: SK-MEL-5
MCF7 = tested on: MCF7
SW-620 = tested on: SW-620
T47D = tested on: T47D
UACC-257 = tested on: UACC-257
MOLT-4 = tested on: MOLT-4
OVCAR-4 = tested on: OVCAR-4
HOP-62 = tested on: HOP-62
NCI-H460 = tested on: NCI-H460
A549 = tested on: A549
HOP-92 = tested on: HOP-92
NCI-H522 = tested on: NCI-H522

Measured: GI50

CCOC(=O)c1c(NC(=O)c2ccccc2)sc2c1CCCC2
> 100 µM: HCT-15
inactive: PC-3 > 100 µM | UACC-62 > 100 µM | HT-29 > 100 µM | TK-10 > 100 µM | OVCAR-8 > 100 µM | SF-268 > 100 µM | SK-MEL-28 > 100 µM | SN12C > 100 µM | NCI-H226 > 100 µM | U-251 > 100 µM | LOX IMVI > 100 µM | UO-31 > 100 µM | SNB-75 7.23 µM | K562 > 100 µM | CCRF-CEM > 100 µM | HCT-116 > 100 µM | SK-OV-3 > 100 µM | EKVX > 100 µM | BT-549 > 100 µM | IGROV-1 > 100 µM | DU-145 > 100 µM | SF-539 > 100 µM | RPMI-8226 > 100 µM | NCI/ADR-RES > 100 µM | NCI-H23 > 100 µM | CAKI-1 > 100 µM | 786-0 > 100 µM | SNB-19 > 100 µM | HL-60 > 100 µM | A498 > 100 µM | Hs-578T > 100 µM | COLO 205 > 100 µM | Malme-3M 78.9 µM | KM12 > 100 µM | SF-295 > 100 µM | ACHN > 100 µM | MDA-N > 100 µM | OVCAR-5 > 100 µM | M14 > 100 µM | MDA-MB-435 > 100 µM | OVCAR-3 > 100 µM | SK-MEL-2 > 100 µM | MDA-MB-231 81.7 µM | RXF 393 > 100 µM | SK-MEL-5 > 100 µM | MCF7 > 100 µM | SW-620 > 100 µM | T47D > 100 µM | UACC-257 > 100 µM | MOLT-4 > 100 µM

O=C1c2ccccc2C(O)(O)C1(O)C1(O)C(=O)c2ccccc2C1(O)O (stereo not given)
inactive: PC-3 > 100 µM | UACC-62 86.9 µM | HT-29 > 100 µM | TK-10 23 µM | OVCAR-8 35.9 µM | SF-268 > 100 µM | SK-MEL-28 > 100 µM | SN12C 16.1 µM | NCI-H226 > 100 µM | OVCAR-4 45.5 µM | U-251 37.2 µM | LOX IMVI 23 µM | UO-31 19.6 µM | SNB-75 15.6 µM | CCRF-CEM 16.9 µM | HCT-116 23.6 µM | SK-OV-3 > 100 µM | HOP-62 23.4 µM | EKVX 36.3 µM | BT-549 55.6 µM | IGROV-1 41.7 µM | DU-145 57.3 µM | SF-539 24.2 µM | RPMI-8226 51.2 µM | NCI/ADR-RES 69.7 µM | NCI-H23 20.8 µM | CAKI-1 29.6 µM | 786-0 38.9 µM | SNB-19 91.8 µM | NCI-H460 18.8 µM | HL-60 18.9 µM | A498 > 100 µM | Hs-578T > 100 µM | COLO 205 20.7 µM | Malme-3M 22.1 µM | A549 30.1 µM | KM12 39.6 µM | SF-295 34.8 µM | HOP-92 37.6 µM | NCI-H522 19.4 µM | ACHN 21.3 µM | MDA-N 21.7 µM | OVCAR-5 65.2 µM | M14 35 µM | MDA-MB-435 16.6 µM | OVCAR-3 25.1 µM | SK-MEL-2 > 100 µM | MDA-MB-231 > 100 µM | RXF 393 26.6 µM | SK-MEL-5 20.1 µM | MCF7 16.8 µM | SW-620 35.3 µM | T47D 23.1 µM
21.8 µM: HCT-15

Source: ChEMBL document CHEMBL1201862, “PubChem BioAssay data set” (2004)
